“And” between values parts separate entries of the source, which are not always exact repeats. Equal entries are not always repeated. “Also recorded” adds a separate entry of the source. Where two headings read alike, the source gives them in different places.
Key:
H35 hepatoma cells = experiment: Inhibition of tumor cell growth, H35 hepatoma; assay type: cell-based; settings: read-out: I50, inhibition of tumor cell growth, H35 hepatoma
[1] = test system: Human manca lymphoid leukemia; experiment: Inhibition of tumor cell growth, Human manca lymphoid leukemia; assay type: cell-based; settings: read-out: I50, inhibition of tumor cell growth, Human manca lymphoid leukemia
[2] = test system: CCRF-CEM human leukemia cells; experiment: Inhibition of tumor cell growth, CCRF-CEM human leukemia; assay type: cell-based
[3] = test system: H35 hepatoma cells (folinic acid transport); experiment: Inhibition of folinic acid transport to H35 hepatoma cells; assay type: cell-based; settings: for IC50: 0.25 h, Folinic acid 2 μM, 15 min uptake, read-out: I50, inhibition of folinic acid transport to H35 hepatoma cells; for transport to H35 hepatoma cells compared to methotrexate: ability to compete with folinic acid transport; for transport to tumor cells compared to methotrexate: fold versus methotrexate
[4] = result in words, cited from earlier work
[5] = cited from earlier work
[6] = cited from earlier work; remark: listed apart in the source
[7] = target: T1, human dihydrofolate reductase (Homo sapiens, UniProt P00374); experiment: Inhibition of dihydrofolate reductase; assay type: biochemical; settings: pure human enzyme from lymphoblastoid cells
T1 construct: Pure human dihydrofolate reductase from lymphoblastoid cells were used; endogenous in cells
T1 sequence (P00374 1-187): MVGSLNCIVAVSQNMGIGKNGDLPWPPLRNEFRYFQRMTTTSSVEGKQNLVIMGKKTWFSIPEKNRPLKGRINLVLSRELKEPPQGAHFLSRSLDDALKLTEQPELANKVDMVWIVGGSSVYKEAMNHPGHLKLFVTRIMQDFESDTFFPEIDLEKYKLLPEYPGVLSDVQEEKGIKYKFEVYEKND
Experimental: Pure human dihydrofolate reductase from lymphoblastoid cells were used. The enzymatic assay was performed as described by Pastore, Plante and Kisliuk in Methods in Enzymology 34:281 (1974).

[8] = target: T2, folylpolyglutamate synthetase (FPGS) (Homo sapiens, UniProt Q05932); experiment: Substrate activity towards CCRF-CEM human leukemia cell folylpolyglutamate synthetase (FPGS); assay type: biochemical; settings: for Substrate activity: Conc 50 μM, CCRF-CEM human leukemia cell FPGS; for substrate for folylpolyglutamate synthetase: result in words
T2 construct: purified human leukemia cell folylpolyglutamate synthetase (FPGS); endogenous in cells; host or cells: CCRF-CEM human leukemia cells
T2 sequence (Q05932 43-587): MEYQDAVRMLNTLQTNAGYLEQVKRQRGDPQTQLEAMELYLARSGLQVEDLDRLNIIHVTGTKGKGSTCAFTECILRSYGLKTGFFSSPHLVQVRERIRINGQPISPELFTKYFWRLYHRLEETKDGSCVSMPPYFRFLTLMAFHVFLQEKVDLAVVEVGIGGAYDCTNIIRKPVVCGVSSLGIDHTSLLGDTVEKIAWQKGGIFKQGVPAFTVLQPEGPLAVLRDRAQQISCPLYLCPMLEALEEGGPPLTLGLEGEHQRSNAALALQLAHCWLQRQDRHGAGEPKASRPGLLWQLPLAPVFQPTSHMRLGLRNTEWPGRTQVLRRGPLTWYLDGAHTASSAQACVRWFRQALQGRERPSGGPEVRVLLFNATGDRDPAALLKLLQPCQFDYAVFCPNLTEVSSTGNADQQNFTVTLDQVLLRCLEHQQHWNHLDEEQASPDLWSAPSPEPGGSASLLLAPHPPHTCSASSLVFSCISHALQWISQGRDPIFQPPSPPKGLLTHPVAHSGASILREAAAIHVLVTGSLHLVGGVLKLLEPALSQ
Experimental: Compounds 1, 2 and 3 were evaluated as substrates of purified human leukemia cell folylpolyglutamate synthetase (FPGS).
The assays were performed as described by McGuire, Graber, Licato, Vincenz, Coward, Nimec and Galivan in Cancer Research 49:4517 (1989).

three tumor models = experiment: Antitumor activity in three tumor models (Table I); assay type: cell-based; settings: result in words
Experimental: Manca cell growth assay was performed as described by Thorndike, Gaumont, Kisliuk, Sirotnak, Murthy and Nair in Cancer Research 49:158 (1989). Growth inhibition of H35hepatoma cells was measured as described by Patil, Jones, Nair, Galivan, Maley, Kisliuk, Gaumont, Duch and Ferone in the Journal of Medicinal Chemistry 32:1284 (1989) and that of CCRF-CEM human leukemia cells according to the procedures of McGuire, Graber, Licato, Vincenz, Coward, Nimec and Galivan (Cancer Research 49:4517, 1989).

[9] = assay type: physicochemical
Text: In stage II the mixed anhydride 6 or 7 is reacted with an excess amount of a diester of .tau.-methyleneglutamic acid such as diethyl-.tau.-methyleneglutamic acid. Dimethyl, dibenzyl or di-t-butyl-.tau.-methylene glutamic acid may be substituted for the diethyl derivative. Diethyl-.tau.-methylene glutamate may be added as the hydrochloride form to the mixed anhydride solutions 6 or 7, followed by the addition of an equal amount or an excess of an acid acceptor such as triethylamine. Alternatively, diethyl-.tau.-methyleneglutamate hydrochloride may be dissolved in a suitable solvent such as DMF, neutralized with an equivalent amount of the acid acceptor, and then added to the mixed anhydride solution. This reaction mixture is stirred for 18 hours at 25-30° C. and the solvent is removed by evaporation under reduced pressure. The resulting coupled product is stirred with an excess of a mixture of 0.1 N NaOH and acetonitrile for 18 hours to give target compounds 1 or 2. […] The precipitate can be recovered by filtration, washed and dried.
For the preparation of compound 3 (Scheme 3), the solution of the mixed anhydride 6 is reacted with an excess amount of the diester of 3-hydroxyglutamic acid such as dimethyl-3-hydroxyglutamate. Diethyl, dibenzyl or di-t-butyl-3-hydroxyglutamate may be substituted for the dimethyl derivative. Dimethyl-3-hydroxyglutamate may be added to the solution of the mixed anhydrie as the hydrochloride followed by the addition of an equivalent or excess amount of the acid acceptor such as triethylamine. Alternatively, dimethyl-3-hydroxyglutamate hydrochloride may be dissolved in a suitable solvent such as DMF, neutralized with an equivalent amount of the acid acceptor such as triethylamine or N-methylmorpholine and then added to the mixed anhydride solution. The reaction mixture is then stirred for 18-24 hours at 25-30° C. and the solvent is removed by rotary evaporation under reduced pressure The resulting product is stirred with an excess of a 3:1 mixture of 0.1 N NaOH:acetonitrile for 10-18 hours to give target compound 3. […]

[10] = cited from earlier work; remark: listed apart in the source
mammalian cells = settings: versus MTX; cited from earlier work
antitumor activity = settings: result in words; cited from earlier work
[11] = Homo sapiens; CCRF-CEM; value marked *: corrected for the presence of the d-enantiomer of methyleneglutamate; duplicate experiments; read-out: I50, inhibition of tumor cell growth, CCRF-CEM human leukemia (*)
[12] = Homo sapiens; CCRF-CEM; values correspond to duplicate experiments; no asterisk; read-out: I50, inhibition of tumor cell growth, CCRF-CEM human leukemia
[13] = human leukemia cells; on a comparative basis

Row | Structure (SMILES) | IC50 (H35 hepatoma cells) | IC50 [1] | IC50 [3] | metabolism to polyglutamyl derivatives [4] | IC50 [7] | Substrate activity [8] | substrate for folylpolyglutamate synthetase [8] | antitumor activity in three tumor models (three tumor models) | solubility in alkali [9] | further results
1 | CN(Cc1cnc2nc(N)nc(N)c2n1)c1ccc(C(=O)N[C@@H](CCC(=O)O)C(=O)O)cc1 [Methotrexate, reference compound] | 10 nM | 6 nM | 18 nM | undergo polyglutamylation | – | – | – | – | – | IC50 ([2]; CCRF-CEM; values correspond to duplicate experiments; no asterisk; read-out: I50, inhibition of tumor cell growth, CCRF-CEM human leukemia): 8 nM; IC50 ([2]; Homo sapiens, CCRF-CEM; values correspond to duplicate experiments; no asterisk; read-out: I50, inhibition of tumor cell growth, CCRF-CEM human leukemia): 12 nM; metabolism to polyglutamyl derivatives ([4]; listed as MTX): metabolized to their poly-.tau.-glutamyl derivatives; metabolism to poly-glutamates in human tissues [5]: metabolism of the well known anticancer drug methotrexate to its poly-.tau.-glutamates in human tissues; formation of poly-glutamyl metabolites in rodent tissues [6]: formation of these metabolites in rodent tissues
2 | C=C(CC(NC(=O)c1ccc(CCc2cnc3nc(N)nc(N)c3n2)cc1)C(=O)O)C(=O)O (stereo not shown) [Compound 1, 4-amino-4-deoxy-10-deazapteroyl-.tau.-methyleneglutamic acid] | 9 nM | 7 nM | 4 nM | – | 30 nM | 5 and 3 | not substrates of CCRF-CEM human leukemia cell folylpolyglutamate synthetase; also recorded: None of the new antifolates (1, 2 or 3) is a substrate for folylpolyglutamate synthetase | excellent antitumor activity | soluble in alkali | IC50 [2, 11]: 5 nM; IC50 [2, 12]: 4 nM; inhibition of growth of human leukemia cells compared to methotrexate [2, 13]: twice as powerful as methotrexate; transport to H35 hepatoma cells compared to methotrexate [3]: transported more efficiently to H35 hepatoma cells than methotrexate; transport to tumor cells compared to methotrexate [3]: three to five times more efficiently than methotrexate
3 | C#CCN(Cc1ccc2nc(N)[nH]c(=O)c2c1)c1ccc(C(=O)N[C@@H](CCC(=O)O)C(=O)O)cc1 [CB 3717, N^10-propargyl-5,8-dideazafolic acid] | – | – | – | – | – | – | – | – | – | conversion to polyglutamyl derivative in normal murine tissues [10]: converted to its polyglutamyl derivatives in normal murine tissues
4 | Nc1nc(N)c2nc(CCc3ccc(C(=O)N[C@@H](CCC(=O)O)C(=O)O)cc3)cnc2n1 [10-Deazaaminopterin, reference compound] | – | – | – | undergo polyglutamylation | – | 1020 | – | – | – | –
5 | CCC(Cc1cnc2nc(N)nc(N)c2n1)c1ccc(C(=O)N[C@@H](CCC(=O)O)C(=O)O)cc1 (stereo partly shown) [Compound 10-EDAM, 10-ethyl-10-deazaaminopterin] | – | – | – | metabolized to their poly-.tau.-glutamyl derivatives | – | – | – | – | – | metabolism to polyglutamyl derivatives ([4]; listed as 10-ethyl derivative): undergo polyglutamylation; transport to mammalian cells compared to MTX (mammalian cells): enhanced transport to mammalian cells compared to MTX; antitumor activity (antitumor activity): wide spectrum of antitumor activity
6 | C=C(CC(NC(=O)c1ccc(C(CC)Cc2cnc3nc(N)nc(N)c3n2)cc1)C(=O)O)C(=O)O (stereo not shown) [Compound 2, 4-amino-4-deoxy-10-ethyl-10-deazapteroyl-.tau.-methyleneglutamic acid] | 11 nM | 9 nM | 3 nM | – | 32 nM | 3 and 6 | not substrates of CCRF-CEM human leukemia cell folylpolyglutamate synthetase; also recorded: None of the new antifolates (1, 2 or 3) is a substrate for folylpolyglutamate synthetase | excellent antitumor activity | soluble in alkali | IC50 [2, 11]: 6 nM; IC50 [2, 12]: 4 nM; inhibition of growth of human leukemia cells compared to methotrexate [2, 13]: twice as powerful as methotrexate; transport to H35 hepatoma cells compared to methotrexate [3]: transported more efficiently to H35 hepatoma cells than methotrexate; transport to tumor cells compared to methotrexate [3]: three to five times more efficiently than methotrexate
7 | Nc1nc(N)c2nc(CCc3ccc(C(=O)NC(C(=O)O)C(O)CC(=O)O)cc3)cnc2n1 (stereo not shown) [Compound 3, 4-amino-4-deoxy-10-deazapteroyl-3-hydroxyglutamic acid] | 28 nM | 15 nM | – | – | 33 nM | 8 and 10 | not substrates of CCRF-CEM human leukemia cell folylpolyglutamate synthetase; also recorded: None of the new antifolates (1, 2 or 3) is a substrate for folylpolyglutamate synthetase | excellent antitumor activity | soluble in alkali | –
